The test system of one experiment is psoriasis-induced mice. Nature of the experiment: In vivo psoriasis model (Aldara cream, Imiquimod). Also on record: species or system BALB/c mice. The method, then: To verify the therapeutic effect of the compound according to the present invention on psoriasis, a psoriasis animal model was established as follows, and the compound according to the present invention was administered to evaluate the alleviation of skin lesions and changes in immune cell patterns.
For the establishment of the psoriasis animal model, BALB/c mice (7 weeks old, female, 20 g) were purchased from HanabioTech Co., Ltd. and acclimatized to the rearing environment for one week.
Subsequently, the hair on the mouse back was shaved using a hair removal device for the first time, and then completely shaved using a depilatory cream (Nicrin Cream (80% thioglycolic acid, Il Dong Pharmaceutical)) for the second time. The mice were then kept for 24 hours to confirm the absence of skin damage.
To verify the psoriasis prevention and therapeutic effects of the compounds according to the present invention, the following experimental groups were established:
[Normal control group (Normal, Not Treatment), psoriasis-induced control group (Psoriasis, Not Treatment), psoriasis-induced vehicle control group (Psoriasis, Vehicle), experimental group (GO85, GO86, GO88, GO89, PBK-2024-010, PBK-2024-026, PBK-2025-002, PBK-2025-004, PBK-2025-016, PBK-2025-017, PBK-2025-023)]. […]
Body weights of mice in each group were measured on days 1, 4, and 8 after the start of injection and psoriasis induction. […]
To evaluate the therapeutic effect in a psoriasis-induced mouse model, the PASI (Psoriasis Area and Severity Index) score was measured.
The PASI score is based on three criteria: erythema, scaling, and skin thickness, each scored from 0 (none) to 4 (severe). […]
Observations were conducted daily at the same time, and the same observer visually assessed each criterion and recorded the scores, with the results presented in FIG. 13. […]
All samples were measured in duplicate, and the absorbance was measured at 450 nm using a microplate reader.

In experiment [1] the test system is HCT-116 colon cancer cell lines. As to the kind of experiment: Matrigel Invasion Assay on HCT-116 colon cancer cell line. Format: cell-based, human. The note with it: HCT-116, Matrigel, 24 hours treatment, vs DMSO. The procedure: To evaluate the metastasis inhibitory efficacy of the compounds of the present invention on HCT-116 colon cancer cell lines, an Invasion Assay using Matrigel was performed to assess the cells' invasion ability.
First, Matrigel was thawed on ice in RPMI-1640 medium without FBS, then diluted with DMEM at a ratio of 1:20.
The diluted Matrigel mixture was applied to the upper chamber at 100 μl per well, and 750 μl of RPMI-1640 without FBS was added to the lower chamber.
The plates were then incubated at 37° C. for 1 hour to allow the Matrigel to solidify.
After coating, the Matrigel mixture in the upper chamber was removed using a pipette, and the chamber was washed with RPMI without FBS.
Human-derived colorectal cancer cell line HCT-116, obtained from the Korean Cell Bank, was cultured in RPMI-1640 medium containing 10% FBS.
Following stabilization, the cells were harvested using Trypsin-EDTA treatment, centrifuged at 1,200 rpm for 3 minutes, the supernatant was removed, and the cells were resuspended in the same medium, the medium in the lower chamber was replaced with 750 μl of RPMI-1640 supplemented with 10% FBS, and the cells were seeded into the upper chamber at a density of 5×10^4 cells/well.
The cells were cultured for 24 hours after attachment, and then the compounds according to the present invention (G078, G085, G086, G088, G089, PBK-2024-010, PBK-2025-010, PBK-2025-013, PBK-2025-016) and the control substance DMSO were diluted and added to the upper chamber after removing the medium.
Additionally, the medium in the lower chamber was replaced with fresh RPMI-1640 containing FBS, and the culture was continued.
After an additional 24 hours, the medium was removed, and 1 ml of methanol was added for 10 minutes to fix the cells.
Subsequently, 1 ml of Hematoxylin was added and reacted for 5 minutes, followed by 1 ml of Eosin, which was reacted for 30 seconds. The sample was then washed with distilled water (DW).
After staining was complete, any remaining cells in the upper chamber were removed. Finally, the infiltrated cells were observed under a microscope, photographed, and the degree of infiltration was analyzed.

Consider one compound from US20260183302A1, “PDK1 REGULATORY COMPOUND AND COMPOSITION CONTAINING THE SAME” (PROVIBIO CO., LTD., priority 2024, published 2026).

Turning to `Nc1nc(NC(=O)CCCCCCCCCCCCN2CCN(CCO)CC2)nc2nc[nH]c12` [Compound 15, 12-[4-(2-hydroxyethyl)piperazin-1-yl]dodecyl-N-(6-aminopurine-2-yl) carboxamide], in the experiment with psoriasis-induced mice, the “efficacy in improving dermatological symptoms” value was “excellent efficacy in improving dermatological symptoms”. Besides, the “number of infiltrated cells (invasion)” value in experiment [1] is listed as “reduction in the number of infiltrated cells”.
